Like-named read-outs stand apart in the source and are kept apart here.
Legend:
ZIKV strain PLCal_ZV = assay: Plaque reduction inhibition assay, ZIKV PLCal_ZV in Vero E6 cells; type: cell-based; conditions: Zika virus
ZIKV strain PAN2016 [1] = assay: Plaque reduction inhibition assay, ZIKV PAN2016 in Vero E6 cells; type: cell-based; conditions: Zika virus
ZIKV strain PRVABC59 [2] = assay: Plaque reduction inhibition assay, ZIKV PRVABC59 in Vero E6 cells; type: cell-based; conditions: Zika virus
ZIKV strain FLR [3] = type: cell-based, Zika virus (ZIKV); conditions: for IC50: Zika virus
ZIKV strain PRVABC59 [4] = type: cell-based, Zika virus (ZIKV)
ZIKV strain PAN2016 [5] = type: cell-based, Zika virus (ZIKV); conditions: for IC50: Zika virus
[6] = test system: ZIKV mosquito strain MEX 2–81; assay: Plaque reduction inhibition assay, ZIKV MEX 2–81 in Vero E6 cells; type: cell-based; conditions: Zika virus
in vitro [7] = conditions: African green monkey
Vero E6 cells [8] = assay: Combinatorial cytotoxicity of gossypol with other natural products, CCK8; conditions: Vero E6; for Fold of Enhancement of cytotoxicity (natural product with gossypol): (CC50 alone)/(CC50 in the mixture)—1
[9] = as above; conditions: African green monkey
ZIKV strain PAN2015 = assay: Plaque reduction inhibition assay, ZIKV PAN2015 in Vero E6 cells; type: cell-based; conditions: Zika virus, Vero C1008
[10] = molecular target: T1, ZIKV envelope protein domain III (EDIII) protein (Zika virus, UniProt A0A024B7W1); type: binding; conditions: ELISA
T1 construct: E residues 298–409 fused with a C-terminal human Fc; made in house
T1 sequence (A0A024B7W1 588-699): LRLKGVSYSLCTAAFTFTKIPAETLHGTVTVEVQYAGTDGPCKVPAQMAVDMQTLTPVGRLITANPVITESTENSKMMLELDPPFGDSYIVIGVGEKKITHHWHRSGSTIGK

ZIKV strain R116265 = assay: Plaque reduction inhibition assay, ZIKV R116265 in Vero E6 cells; type: cell-based; conditions: Zika virus, Vero C1008
DENV-1-V1792 = assay: Plaque reduction inhibition assay, DENV-1 in LLC-MK2 cells; type: cell-based; conditions: Dengue virus, DENV1
in vitro [11] = conditions: rhesus monkey
DENV-4-PR 06-65-740 = assay: Plaque reduction inhibition assay, DENV-4 in LLC-MK2 cells; type: cell-based; conditions: Dengue virus, DENV4
DENV-3-V1043 = assay: Plaque reduction inhibition assay, DENV-3 in LLC-MK2 cells; type: cell-based; conditions: Dengue virus, DENV3
Vero E6 cells [12] = assay: Initial screening: cytotoxicity observed under a microscope; conditions: initial screening at 20 µM
[13] = test system: ZIKV rhesus macaque strain MR 766; assay: Plaque reduction inhibition assay, ZIKV MR 766 in Vero E6 cells; type: cell-based; conditions: Zika virus, Vero C1008, in Macaca mulatta, read-out: IC50 MR 766
ZIKV strain FLR [14] = assay: Plaque reduction inhibition assay, ZIKV FLR in Vero E6 cells; type: cell-based; conditions: Zika virus
ZIKV (PAN2016) = assay: Time-of-addition experiment, ZIKV PAN2016 in Vero E6 cells; type: cell-based, Zika virus (ZIKV); conditions: for inhibition at 7.5 µM: Zika virus, Vero C1008, 1 h; for inhibition of ZIKV infection, step a: pretreatment of ZIKV: natural product with ZIKV 37 °C 1 h before cells
[15] = molecular target: ZIKV full-length E protein (Zika virus, UniProt A0A024B7W1); type: binding; conditions: ELISA
ZIKV full-length E protein, sequence (A0A024B7W1 291-794): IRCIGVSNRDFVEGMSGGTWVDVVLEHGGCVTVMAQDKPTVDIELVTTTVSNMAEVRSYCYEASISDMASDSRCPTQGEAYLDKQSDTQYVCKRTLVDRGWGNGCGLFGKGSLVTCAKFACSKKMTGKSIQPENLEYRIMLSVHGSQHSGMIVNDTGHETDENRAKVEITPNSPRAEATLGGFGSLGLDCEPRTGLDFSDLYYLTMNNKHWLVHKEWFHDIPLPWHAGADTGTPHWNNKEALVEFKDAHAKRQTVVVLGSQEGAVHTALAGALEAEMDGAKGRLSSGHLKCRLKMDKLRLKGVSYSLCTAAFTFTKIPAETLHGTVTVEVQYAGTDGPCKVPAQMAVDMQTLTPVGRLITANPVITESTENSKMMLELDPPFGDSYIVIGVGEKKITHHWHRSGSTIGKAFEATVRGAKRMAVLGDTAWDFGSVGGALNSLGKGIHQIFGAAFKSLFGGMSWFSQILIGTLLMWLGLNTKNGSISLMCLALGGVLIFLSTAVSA

DENV-2-V594 = assay: Plaque reduction inhibition assay, DENV-2 in LLC-MK2 cells; type: cell-based; conditions: Dengue virus, DENV2
ZIKV strain R103451 = assay: Plaque reduction inhibition assay, ZIKV R103451 in Vero E6 cells; type: cell-based; conditions: Zika virus
ZIKV strain IbH 30656 = assay: Plaque reduction inhibition assay, ZIKV IbH 30656 in Vero E6 cells; type: cell-based; conditions: Zika virus, Vero C1008, read-out: IC50 IbH 30656
in vitro [16] = conditions: African green monkey; remark: listed apart in the source
[17] = molecular target: binding between ZIKV EDIII protein and EDIII-specific human mAbs (Zika virus, UniProt A0A024B7W1); conditions: ELISA; no binding between ZKA78 and EDIII
binding between ZIKV EDIII protein and EDIII-specific human mAbs, sequence (A0A024B7W1 588-699): as the sequence (A0A024B7W1 588-699) above

nine ZIKV strains = assay: Plaque reduction inhibition assay, nine additional ZIKV strains (summary); type: cell-based; conditions: Zika virus, Vero C1008; range over nine additional ZIKV strains, Vero E6 cells; read-out: IC50 values against all nine ZIKV strains tested
[18] = gossypol 15 µM, curcumin 30 µM, digitonin 7.5 µM, conessine 30 µM
[19] = Vero C1008, read-out: IC50 Alone

C[C@@H]1CC[C@@]2(OC1)O[C@H]1[C@@H](O)[C@H]3[C@@H]4CC[C@H]5C[C@@H](O[C@@H]6O[C@H](CO)[C@H](O[C@@H]7O[C@H](CO)[C@@H](O)[C@H](O[C@@H]8OC[C@@H](O)[C@H](O)[C@H]8O)[C@H]7O[C@@H]7O[C@H](CO)[C@H](O)[C@H](O[C@@H]8O[C@H](CO)[C@@H](O)[C@H](O)[C@H]8O)[C@H]7O)[C@H](O)[C@H]6O)[C@H](O)C[C@]5(C)[C@H]4CC[C@]3(C)[C@H]1[C@@H]2C [Digitonin, digitonin]
IC50 (ZIKV strain PLCal_ZV; Vero C1008, plaque reduction, Vero E6 cells, read-out: IC50 PLCal_ZV): 3.19 ± 0.25 µM | IC90 (ZIKV strain PAN2016 [1]; Vero C1008, 90% plaque reduction, Vero E6 cells, read-out: IC90 against ZIKV PAN2016 strain): ~7.91 µM | IC50 (ZIKV strain PAN2016 [1]; Vero C1008, plaque reduction, Vero E6 cells, read-out: IC50 PAN2016): 4.31 ± 0.23 µM | IC50 (ZIKV strain PRVABC59 [2]; Vero C1008, plaque reduction, Vero E6 cells): 3.76 ± 1.12 µM | CI (combination index) of gossypol with the named natural product (ZIKV strain FLR [3]; ZIKV FLR, CI < 1 synergy): 0.95 | IC50 (ZIKV strain FLR [3]; Vero C1008, ZIKV FLR, Vero E6, natural product without combination, read-out: IC50 Alone): 3.86 ± 0.02 µM | Fold of Enhancement (natural product with gossypol) (ZIKV strain PRVABC59 [4]; ZIKV PRVABC59, (IC50 alone)/(IC50 in the mixture)—1): 5.98 | CI (combination index) of gossypol with the named natural product (ZIKV strain PRVABC59 [4]; ZIKV PRVABC59, CI < 1 synergy): 0.29 | IC50 (ZIKV strain PRVABC59 [4]; Zika virus, Vero C1008, ZIKV PRVABC59, Vero E6, natural product without combination, read-out: IC50 Alone): 3.84 ± 0.81 µM | Fold of Enhancement (natural product with gossypol) (ZIKV strain PAN2016 [5]; ZIKV PAN2016, (IC50 alone)/(IC50 in the mixture)—1): 2.21 | CI (combination index) of gossypol with the named natural product (ZIKV strain PAN2016 [5]; ZIKV PAN2016, CI < 1 synergy): 0.60 | IC50 (ZIKV strain PAN2016 [5]; Vero C1008, ZIKV PAN2016, Vero E6, natural product without combination, read-out: IC50 Alone): 4.85 ± 0.24 µM | IC50 ([6]; Vero C1008, plaque reduction, Vero E6 cells, read-out: IC50 MEX 2–81): 3.84 ± 0.12 µM | CC50 at 3 days (in vitro [7]): 56.3 ± 1.2 µM | Fold of Enhancement of cytotoxicity (natural product with gossypol) (Vero E6 cells [8]): 2.60 | Fold of Enhancement of cytotoxicity (natural product with gossypol) (Vero E6 cells [8]; listed as digitonin): about 2.60 | CI (combination index, cytotoxicity) of gossypol with the named natural product (Vero E6 cells [8]; based on CC50): 1.36 | CC50 at 3 days [9]: 50.63 ± 0.22 µM | IC50 (ZIKV strain PAN2015): 5 ± 0.01 µM | binding to ZIKV EDIII protein (in words) [10]: did not bind | IC50 (ZIKV strain R116265): 6.52 ± 0.59 µM | IC50 (DENV-1-V1792): 5.21 ± 0.35 µM | CC50 at 3 days (in vitro [11]): 59.02 ± 0.33 µM | IC50 (DENV-4-PR 06-65-740): 6.44 ± 0.34 µM | IC50 (DENV-3-V1043): 4.07 ± 0.83 µM | cytotoxicity in Vero E6 cells observed under a microscope (Vero E6 cells [12]): no obvious cytotoxicity | IC50 ([13]; plaque reduction, Vero E6 cells): 3.77 ± 0.31 µM | IC50 (ZIKV strain FLR [14]; Vero C1008, plaque reduction, Vero E6 cells, read-out: IC50 FLR): 3.34 ± 0.22 µM | inhibition at 7.5 µM (ZIKV (PAN2016); read-out: inhibition of ZIKV infection, step c: cotreatment at 4 °C (attachment)): 49 to 74% | inhibition at 7.5 µM (ZIKV (PAN2016); read-out: inhibition of ZIKV infection, step d: cotreatment at 37 °C): ≥ 94% | inhibition at 7.5 µM (ZIKV (PAN2016); read-out: inhibition of ZIKV infection, step e: penetration (membrane fusion)): 49 to 74% | inhibition at 7.5 µM (ZIKV (PAN2016); read-out: inhibition of ZIKV infection, step f: postentry stage): 49 to 74% | inhibition of ZIKV infection, step a: pretreatment of ZIKV (ZIKV (PAN2016); [18]): no effect | binding to ZIKV full-length E protein (in words) [15]: did not bind | IC50 (DENV-2-V594): 6.56 ± 0.21 µM | IC50 (ZIKV strain R103451; Vero C1008, plaque reduction, Vero E6 cells, read-out: IC50 R103451): 4.3 ± 0.43 µM

Cc1cc2c(C(C)C)c(O)c(O)c(C=O)c2c(O)c1-c1c(C)cc2c(C(C)C)c(O)c(O)c(C=O)c2c1O [Gossypol, gossypol]
IC50 (ZIKV strain PLCal_ZV; Vero C1008, read-out: IC50 PLCal_ZV): 1.98 ± 0.07 µM | IC50 (ZIKV strain PAN2016 [1]; Vero C1008, read-out: IC50 PAN2016): 3.48 ± 0.03 µM | IC90 (ZIKV strain PAN2016 [1]; Vero C1008, read-out: IC90 against ZIKV PAN2016 strain): ~6.91 µM | IC90 (ZIKV strain PRVABC59 [2]; Vero C1008, read-out: IC90 against ZIKV strain PRVABC59): ~8.81 µM | IC50 (ZIKV strain FLR [3]; [19]): 0.26 ± 0.01 µM | IC50 (ZIKV strain PAN2016 [5]; [19]): 3.79 ± 0.01 µM | IC50 ([6]; Vero C1008, read-out: IC50 MEX 2–81): 2.79 ± 0.01 µM | CC50 at 3 days (in vitro [7]): 14.2 ± 0.74 µM | IC50 (ZIKV strain IbH 30656): 3.31 ± 0.11 µM | CC50 at 3 days (in vitro [16]): 14.8 ± 0.42 µM | IC50 (DENV-1-V1792): 1.87 ± 0.01 µM | CC50 at 3 days (in vitro [11]): 14.5 ± 0.59 µM | IC50 (DENV-4-PR 06-65-740): 2.6 ± 0.12 µM | inhibition with control mAb ZKA78 (EDI/DII-specific) [17]: no obvious inhibition | IC50 (DENV-3-V1043): 3.7 ± 0.59 µM | cytotoxicity in Vero E6 cells observed under a microscope (Vero E6 cells [12]): no obvious cytotoxicity | IC50 (nine ZIKV strains): 0.21 to 4.31 µM | IC50 [13]: 3.75 ± 0.01 µM | IC50 (ZIKV strain FLR [14]; Vero C1008, read-out: IC50 FLR): 0.21 ± 0.01 µM | inhibition of ZIKV infection, step e: penetration (membrane fusion) (ZIKV (PAN2016); cells with ZIKV 4 °C 1 h, then natural product 37 °C 1 h, gossypol 15 µM, curcumin 30 µM, digitonin 7.5 µM, conessine 30 µM): maintained its infectivity | inhibition of ZIKV infection, step f: postentry stage (ZIKV (PAN2016); cells with ZIKV 37 °C 1 h, then natural product 37 °C 1 h, gossypol 15 µM, curcumin 30 µM, digitonin 7.5 µM, conessine 30 µM): maintained its infectivity | inhibition of ZIKV infection, step b: pretreatment of cells (ZIKV (PAN2016); cells with natural product 37 °C 1 h before ZIKV, gossypol 15 µM, curcumin 30 µM, digitonin 7.5 µM, conessine 30 µM): maintained its infectivity | inhibition of ZIKV infection, step c: cotreatment at 4 °C (attachment) (ZIKV (PAN2016); cells, ZIKV and natural product 4 °C 1 h, gossypol 15 µM, curcumin 30 µM, digitonin 7.5 µM, conessine 30 µM): maintained its infectivity | inhibition of ZIKV infection, step d: cotreatment at 37 °C (ZIKV (PAN2016); cells, ZIKV and natural product 37 °C 1 h, gossypol 15 µM, curcumin 30 µM, digitonin 7.5 µM, conessine 30 µM): maintained its infectivity | inhibition of ZIKV infection, step a: pretreatment of ZIKV (ZIKV (PAN2016); [18]): completely lost its infectivity | IC50 (DENV-2-V594): 1.89 ± 0.21 µM | IC50 (ZIKV strain R103451; Vero C1008, read-out: IC50 R103451): 2.28 ± 0.1 µM

Source: paper PMC6893700 (Viruses, 2019)
